# In ChEMBL document CHEMBL1150977, “A quantitative analysis of kinase inhibitor selectivity” (Nat Biotechnol, 2008):
# Molecular target: Serine/threonine-protein kinase B-raf (Homo sapiens, UniProt P15056)
# Sequence (P15056 whole entry): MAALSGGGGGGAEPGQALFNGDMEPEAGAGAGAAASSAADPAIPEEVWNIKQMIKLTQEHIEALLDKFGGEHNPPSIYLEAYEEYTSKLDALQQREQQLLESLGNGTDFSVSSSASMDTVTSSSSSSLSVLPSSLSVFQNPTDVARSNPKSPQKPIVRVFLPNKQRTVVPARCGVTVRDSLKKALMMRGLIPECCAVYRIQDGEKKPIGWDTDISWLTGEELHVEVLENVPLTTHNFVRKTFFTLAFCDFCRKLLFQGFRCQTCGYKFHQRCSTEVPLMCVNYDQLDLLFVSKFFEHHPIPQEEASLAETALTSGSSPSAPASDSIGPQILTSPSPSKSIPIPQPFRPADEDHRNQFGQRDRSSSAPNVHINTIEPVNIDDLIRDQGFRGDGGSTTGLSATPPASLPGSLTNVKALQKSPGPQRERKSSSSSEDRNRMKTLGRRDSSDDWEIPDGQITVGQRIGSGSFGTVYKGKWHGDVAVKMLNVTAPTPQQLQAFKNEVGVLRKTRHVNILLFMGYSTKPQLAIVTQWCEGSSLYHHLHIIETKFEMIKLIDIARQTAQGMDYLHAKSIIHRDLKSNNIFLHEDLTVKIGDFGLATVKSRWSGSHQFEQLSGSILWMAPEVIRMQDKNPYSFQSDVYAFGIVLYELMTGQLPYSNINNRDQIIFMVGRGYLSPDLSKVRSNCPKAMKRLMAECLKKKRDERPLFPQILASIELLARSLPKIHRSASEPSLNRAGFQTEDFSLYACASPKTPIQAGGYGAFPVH
row,Structure (SMILES),Kd
1,CCOc1cc2ncc(C#N)c(Nc3ccc(F)c(Cl)c3)c2cc1NC(=O)/C=C/CN(C)C [PELITINIB],> 10 µM
2,Nc1nc(Nc2ccc(S(N)(=O)=O)cc2)nn1C(=O)c1c(F)cccc1F [JNJ-7706621],> 10 µM
3,Oc1ccc(-c2nc(-c3ccncc3)c(-c3ccc(F)cc3)[nH]2)cc1 [SB-202190],4.8 µM

# Molecular target: Glycogen synthase kinase-3 beta (Homo sapiens, UniProt P49841)
# Sequence (P49841 whole entry): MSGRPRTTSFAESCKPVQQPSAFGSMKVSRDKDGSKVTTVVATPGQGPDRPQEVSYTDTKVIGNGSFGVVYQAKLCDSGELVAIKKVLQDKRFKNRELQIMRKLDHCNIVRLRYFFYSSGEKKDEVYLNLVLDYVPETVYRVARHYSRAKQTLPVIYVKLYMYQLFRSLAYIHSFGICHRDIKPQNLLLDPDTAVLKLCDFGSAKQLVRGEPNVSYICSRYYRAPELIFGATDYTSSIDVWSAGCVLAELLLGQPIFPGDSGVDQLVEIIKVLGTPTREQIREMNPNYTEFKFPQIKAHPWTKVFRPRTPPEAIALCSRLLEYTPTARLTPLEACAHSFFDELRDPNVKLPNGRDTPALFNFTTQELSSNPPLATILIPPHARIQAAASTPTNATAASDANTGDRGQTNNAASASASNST
row,Structure (SMILES),Kd
1,CCOc1cc2ncc(C#N)c(Nc3ccc(F)c(Cl)c3)c2cc1NC(=O)/C=C/CN(C)C [PELITINIB],> 10 µM
2,Oc1ccc(-c2nc(-c3ccncc3)c(-c3ccc(F)cc3)[nH]2)cc1 [SB-202190],2.7 µM
3,COCC(=O)NC/C=C/c1ccc2ncnc(Nc3ccc(Oc4ccc(C)nc4)c(C)c3)c2c1 [CP-724714],> 10 µM
4,NC(=O)c1ccc(-c2nc(-c3ccc4c(c3)OCO4)c(-c3ccccn3)[nH]2)cc1 [SB-431542],> 10 µM

# Molecular target: T1, Serine/threonine-protein kinase PLK4 (Homo sapiens, UniProt O00444)
# T1 sequence (O00444 whole entry): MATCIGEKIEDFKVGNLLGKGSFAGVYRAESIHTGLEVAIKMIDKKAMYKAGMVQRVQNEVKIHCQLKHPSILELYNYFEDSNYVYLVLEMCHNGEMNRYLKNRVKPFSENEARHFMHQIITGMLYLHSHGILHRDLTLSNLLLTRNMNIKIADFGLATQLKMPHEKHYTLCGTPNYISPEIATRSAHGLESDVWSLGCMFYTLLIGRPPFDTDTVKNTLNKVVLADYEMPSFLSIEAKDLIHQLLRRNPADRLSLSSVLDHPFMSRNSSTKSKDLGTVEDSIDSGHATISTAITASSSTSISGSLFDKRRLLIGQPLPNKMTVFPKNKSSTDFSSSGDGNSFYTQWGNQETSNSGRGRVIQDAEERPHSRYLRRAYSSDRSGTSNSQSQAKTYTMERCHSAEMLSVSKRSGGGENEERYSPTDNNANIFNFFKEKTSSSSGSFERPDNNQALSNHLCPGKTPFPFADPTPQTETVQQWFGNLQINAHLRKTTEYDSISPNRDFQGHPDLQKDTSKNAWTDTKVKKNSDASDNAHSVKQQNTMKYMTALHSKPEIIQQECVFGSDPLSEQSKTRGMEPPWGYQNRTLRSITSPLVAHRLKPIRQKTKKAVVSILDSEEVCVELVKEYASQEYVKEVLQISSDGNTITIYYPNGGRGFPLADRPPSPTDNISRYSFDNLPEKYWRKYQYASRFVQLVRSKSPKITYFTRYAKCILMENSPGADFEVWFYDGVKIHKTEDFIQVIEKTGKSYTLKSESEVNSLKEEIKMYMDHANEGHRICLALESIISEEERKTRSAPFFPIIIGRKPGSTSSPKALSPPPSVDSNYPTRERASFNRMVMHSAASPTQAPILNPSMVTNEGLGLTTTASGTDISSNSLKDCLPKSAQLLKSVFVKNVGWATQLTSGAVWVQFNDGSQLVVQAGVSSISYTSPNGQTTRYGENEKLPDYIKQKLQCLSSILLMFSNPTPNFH
row,Structure (SMILES),Kd
1,CCOc1cc2ncc(C#N)c(Nc3ccc(F)c(Cl)c3)c2cc1NC(=O)/C=C/CN(C)C [PELITINIB],> 10 µM
2,Nc1nc(Nc2ccc(S(N)(=O)=O)cc2)nn1C(=O)c1c(F)cccc1F [JNJ-7706621],0.12 µM
3,Oc1ccc(-c2nc(-c3ccncc3)c(-c3ccc(F)cc3)[nH]2)cc1 [SB-202190],> 10 µM
4,COCC(=O)NC/C=C/c1ccc2ncnc(Nc3ccc(Oc4ccc(C)nc4)c(C)c3)c2c1 [CP-724714],> 10 µM
5,NC(=O)c1ccc(-c2nc(-c3ccc4c(c3)OCO4)c(-c3ccccn3)[nH]2)cc1 [SB-431542],> 10 µM

# Molecular target: T2, Serine/threonine-protein kinase LATS2 (Homo sapiens, UniProt Q9NRM7)
# T2 sequence (Q9NRM7 whole entry): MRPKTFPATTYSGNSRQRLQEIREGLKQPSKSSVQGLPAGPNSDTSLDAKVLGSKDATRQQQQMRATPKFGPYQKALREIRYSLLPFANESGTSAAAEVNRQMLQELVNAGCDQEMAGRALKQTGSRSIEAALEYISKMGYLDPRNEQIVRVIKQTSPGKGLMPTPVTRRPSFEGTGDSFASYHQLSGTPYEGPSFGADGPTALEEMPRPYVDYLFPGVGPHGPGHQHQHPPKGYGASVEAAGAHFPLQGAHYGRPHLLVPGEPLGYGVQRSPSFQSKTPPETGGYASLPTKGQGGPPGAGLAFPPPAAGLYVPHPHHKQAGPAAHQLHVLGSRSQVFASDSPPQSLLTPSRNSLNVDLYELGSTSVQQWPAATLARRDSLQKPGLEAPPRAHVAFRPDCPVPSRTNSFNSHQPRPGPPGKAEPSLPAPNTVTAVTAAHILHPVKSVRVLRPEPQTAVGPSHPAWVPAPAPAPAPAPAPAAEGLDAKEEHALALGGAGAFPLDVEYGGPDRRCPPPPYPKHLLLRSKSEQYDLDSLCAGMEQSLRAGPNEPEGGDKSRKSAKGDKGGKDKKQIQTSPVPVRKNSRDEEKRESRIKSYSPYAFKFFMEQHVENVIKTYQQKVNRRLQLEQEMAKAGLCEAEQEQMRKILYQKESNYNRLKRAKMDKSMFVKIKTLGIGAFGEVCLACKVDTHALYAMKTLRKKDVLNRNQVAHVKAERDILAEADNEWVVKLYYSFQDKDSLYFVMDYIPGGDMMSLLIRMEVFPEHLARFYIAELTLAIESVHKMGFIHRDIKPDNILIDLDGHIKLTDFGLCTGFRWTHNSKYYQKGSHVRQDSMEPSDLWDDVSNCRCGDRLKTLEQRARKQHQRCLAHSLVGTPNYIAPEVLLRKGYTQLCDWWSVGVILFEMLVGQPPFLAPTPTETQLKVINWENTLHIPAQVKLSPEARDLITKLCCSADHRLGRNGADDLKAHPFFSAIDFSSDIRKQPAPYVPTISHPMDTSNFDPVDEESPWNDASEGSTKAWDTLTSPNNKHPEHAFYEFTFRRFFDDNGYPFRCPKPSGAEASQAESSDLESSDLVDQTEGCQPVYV
row,Structure (SMILES),Kd
1,CCOc1cc2ncc(C#N)c(Nc3ccc(F)c(Cl)c3)c2cc1NC(=O)/C=C/CN(C)C [PELITINIB],> 10 µM
2,COCC(=O)NC/C=C/c1ccc2ncnc(Nc3ccc(Oc4ccc(C)nc4)c(C)c3)c2c1 [CP-724714],> 10 µM
3,NC(=O)c1ccc(-c2nc(-c3ccc4c(c3)OCO4)c(-c3ccccn3)[nH]2)cc1 [SB-431542],> 10 µM

# Molecular target: Serine/threonine-protein kinase N1 (Homo sapiens, UniProt Q16512)
# Sequence (Q16512 whole entry): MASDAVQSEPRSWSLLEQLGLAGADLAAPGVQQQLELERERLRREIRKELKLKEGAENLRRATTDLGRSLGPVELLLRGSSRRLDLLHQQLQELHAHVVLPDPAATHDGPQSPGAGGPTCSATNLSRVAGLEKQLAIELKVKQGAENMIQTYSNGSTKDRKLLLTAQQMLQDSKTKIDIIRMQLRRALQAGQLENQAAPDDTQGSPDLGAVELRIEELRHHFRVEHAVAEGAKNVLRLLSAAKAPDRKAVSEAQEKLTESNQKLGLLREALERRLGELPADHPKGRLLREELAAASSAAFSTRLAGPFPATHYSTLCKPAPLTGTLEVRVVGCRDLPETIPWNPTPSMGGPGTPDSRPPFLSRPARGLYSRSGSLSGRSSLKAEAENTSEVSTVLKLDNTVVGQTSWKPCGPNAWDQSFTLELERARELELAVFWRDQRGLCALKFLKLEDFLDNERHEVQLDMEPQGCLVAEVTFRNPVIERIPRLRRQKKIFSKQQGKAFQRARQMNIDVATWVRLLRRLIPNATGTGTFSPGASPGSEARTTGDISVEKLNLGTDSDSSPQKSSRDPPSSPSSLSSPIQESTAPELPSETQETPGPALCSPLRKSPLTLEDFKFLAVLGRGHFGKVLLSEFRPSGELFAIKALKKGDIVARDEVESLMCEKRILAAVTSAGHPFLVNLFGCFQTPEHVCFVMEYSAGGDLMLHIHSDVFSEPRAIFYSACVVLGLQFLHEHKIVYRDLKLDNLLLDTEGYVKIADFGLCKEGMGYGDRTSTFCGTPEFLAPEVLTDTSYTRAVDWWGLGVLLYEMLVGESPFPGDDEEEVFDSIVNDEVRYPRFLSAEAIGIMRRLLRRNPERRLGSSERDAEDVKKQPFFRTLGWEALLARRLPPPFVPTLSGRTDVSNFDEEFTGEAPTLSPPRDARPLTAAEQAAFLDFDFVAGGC
row,Structure (SMILES),Kd
1,CCOc1cc2ncc(C#N)c(Nc3ccc(F)c(Cl)c3)c2cc1NC(=O)/C=C/CN(C)C [PELITINIB],> 10 µM
2,Nc1nc(Nc2ccc(S(N)(=O)=O)cc2)nn1C(=O)c1c(F)cccc1F [JNJ-7706621],> 10 µM
3,Oc1ccc(-c2nc(-c3ccncc3)c(-c3ccc(F)cc3)[nH]2)cc1 [SB-202190],> 10 µM
4,COCC(=O)NC/C=C/c1ccc2ncnc(Nc3ccc(Oc4ccc(C)nc4)c(C)c3)c2c1 [CP-724714],> 10 µM
5,NC(=O)c1ccc(-c2nc(-c3ccc4c(c3)OCO4)c(-c3ccccn3)[nH]2)cc1 [SB-431542],> 10 µM

# Molecular target: T3, Serine/threonine-protein kinase TNNI3K (Homo sapiens, UniProt Q59H18)
# T3 sequence (Q59H18 whole entry): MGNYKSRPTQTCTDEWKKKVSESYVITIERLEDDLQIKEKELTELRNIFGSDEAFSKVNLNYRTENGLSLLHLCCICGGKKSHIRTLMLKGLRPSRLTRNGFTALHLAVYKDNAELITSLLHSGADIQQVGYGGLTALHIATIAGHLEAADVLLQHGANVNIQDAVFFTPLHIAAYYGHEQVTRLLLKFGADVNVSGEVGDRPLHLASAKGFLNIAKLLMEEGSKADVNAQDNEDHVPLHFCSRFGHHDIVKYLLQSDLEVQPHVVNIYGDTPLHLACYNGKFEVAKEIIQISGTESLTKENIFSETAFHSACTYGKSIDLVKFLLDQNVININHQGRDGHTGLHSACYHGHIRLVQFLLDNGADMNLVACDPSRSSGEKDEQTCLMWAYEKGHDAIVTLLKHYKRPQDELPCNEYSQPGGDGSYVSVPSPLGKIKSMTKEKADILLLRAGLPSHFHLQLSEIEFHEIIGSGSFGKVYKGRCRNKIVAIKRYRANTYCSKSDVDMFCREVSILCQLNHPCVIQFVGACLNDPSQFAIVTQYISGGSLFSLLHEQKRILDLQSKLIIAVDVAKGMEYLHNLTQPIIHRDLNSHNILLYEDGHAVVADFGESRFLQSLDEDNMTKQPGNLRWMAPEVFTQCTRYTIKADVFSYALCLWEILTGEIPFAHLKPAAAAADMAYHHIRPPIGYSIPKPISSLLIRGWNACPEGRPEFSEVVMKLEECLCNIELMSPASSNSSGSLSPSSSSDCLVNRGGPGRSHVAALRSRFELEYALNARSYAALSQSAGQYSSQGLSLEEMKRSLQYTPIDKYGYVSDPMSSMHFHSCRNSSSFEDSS
row,Structure (SMILES),Kd
1,CCOc1cc2ncc(C#N)c(Nc3ccc(F)c(Cl)c3)c2cc1NC(=O)/C=C/CN(C)C [PELITINIB],7.2 µM
2,Nc1nc(Nc2ccc(S(N)(=O)=O)cc2)nn1C(=O)c1c(F)cccc1F [JNJ-7706621],1.4 µM
3,Oc1ccc(-c2nc(-c3ccncc3)c(-c3ccc(F)cc3)[nH]2)cc1 [SB-202190],> 10 µM
4,COCC(=O)NC/C=C/c1ccc2ncnc(Nc3ccc(Oc4ccc(C)nc4)c(C)c3)c2c1 [CP-724714],> 10 µM
5,NC(=O)c1ccc(-c2nc(-c3ccc4c(c3)OCO4)c(-c3ccccn3)[nH]2)cc1 [SB-431542],> 10 µM
